Marks after values point to notes of the source that are not given here. Blank lines part the entries; values can stand above or below the compound they belong to.
Assays:
amyloid-beta = amyloid-beta (Homo sapiens, UniProt P05067); test: Competition binding to amyloid-beta in AD brain homogenate; details: for IC50: fluorine-19 derivatives
Protocol: (§1) 20 μg of human Alzheimer disease brain homogenate was incubated with a dilution series of each test compound (1000 to 0.06 nM) in the presence of 800 Bq of ^18F-labeled beta-amyloid binder. The samples were shaken at 110 rpm for 45 min at 37° C. Samples were then filtered through GF/B 96 well filter plates and washed twice with 300 μL assay buffer (PBS containing 0.1% BSA and 2% DMSO). Thereafter, filter plates were sealed and a Fuji Film Imaging Plate (BAS-SR2025) was placed on top. The imaging plate was analyzed after overnight exposition using a Fuji Film BAS-5000. Non-specific signal was determined with samples containing ^18F-labeled beta-amyloid binder in the presence of assay buffer without brain substrate and competitor. […] The unblocked ^18F-labeled beta-amyloid binder signal was defined as total binding. IC50 values were calculated by Prism V6 (GraphPad) setting total binding to 100%.

MAO A [1] = target: T1, MAO A (Mus musculus, UniProt Q64133); test: MAO A 18F-FEH competition assay in mouse brain homogenate; assay type: binding; design: Low affinity to MAO A (grade), mouse brain homogenate: key to the marks not given beside the values; details: for IC50: 18F-FEH competition, fluorine-19 derivatives
T1 construct: from tissue; host or cells: whole mouse brain homogenate
T1 sequence (Q64133 1-526): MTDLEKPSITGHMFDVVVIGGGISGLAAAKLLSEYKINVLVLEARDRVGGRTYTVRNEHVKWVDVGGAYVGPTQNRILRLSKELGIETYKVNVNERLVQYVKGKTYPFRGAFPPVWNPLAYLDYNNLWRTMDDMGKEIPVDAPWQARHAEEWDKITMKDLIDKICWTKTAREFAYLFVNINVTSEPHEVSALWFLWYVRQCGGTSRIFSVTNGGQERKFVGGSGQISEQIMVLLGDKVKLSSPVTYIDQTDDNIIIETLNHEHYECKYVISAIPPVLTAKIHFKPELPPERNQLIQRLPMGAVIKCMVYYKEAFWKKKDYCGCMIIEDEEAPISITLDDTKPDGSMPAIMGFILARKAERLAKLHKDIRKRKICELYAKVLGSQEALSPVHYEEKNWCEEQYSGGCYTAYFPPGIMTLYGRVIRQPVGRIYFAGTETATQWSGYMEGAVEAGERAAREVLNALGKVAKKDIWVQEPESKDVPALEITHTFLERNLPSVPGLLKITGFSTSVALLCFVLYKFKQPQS

MAO A [2] = target: T2, MAO A (Homo sapiens, UniProt P21397); test: MAO A FEH competition assay in human HC brain homogenate; assay type: binding; design: Low affinity to MAO A (grade), HC homogenate: key: −: poor; ∘: moderate; +: good; ++: very good; +++: excellent; details: for IC50: human control brain homogenate, FEH competition, fluorine-19 derivatives
T2 construct: 20 μg of human brain homogenate (without AD pathology); from tissue; host or cells: human brain homogenate without AD pathology
T2 sequence (P21397 1-527): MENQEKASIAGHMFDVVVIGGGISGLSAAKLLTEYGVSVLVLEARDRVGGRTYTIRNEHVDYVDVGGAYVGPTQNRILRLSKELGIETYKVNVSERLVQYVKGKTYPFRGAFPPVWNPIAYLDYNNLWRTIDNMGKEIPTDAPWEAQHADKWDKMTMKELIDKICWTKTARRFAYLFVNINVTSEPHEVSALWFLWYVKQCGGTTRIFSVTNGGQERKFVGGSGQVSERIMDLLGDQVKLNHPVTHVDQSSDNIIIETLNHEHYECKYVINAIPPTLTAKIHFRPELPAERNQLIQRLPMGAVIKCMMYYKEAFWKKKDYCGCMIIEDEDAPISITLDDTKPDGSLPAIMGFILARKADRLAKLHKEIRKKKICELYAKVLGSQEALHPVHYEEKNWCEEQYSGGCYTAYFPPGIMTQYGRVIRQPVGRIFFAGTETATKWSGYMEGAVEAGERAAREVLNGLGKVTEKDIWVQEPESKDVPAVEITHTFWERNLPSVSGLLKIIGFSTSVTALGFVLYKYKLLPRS
Protocol: as §1, with “human” for “human Alzheimer disease”, “homogenate (without AD pathology)” for “homogenate”, “MAO-A binder ([^18F]fluoroethyl harmine, FEH).” for “beta-amyloid binder.”, “FEH” for “beta-amyloid binder”

[3] = PK studies in healthy mice (dynamic PET); assay type: in vivo, NMRI mice; design: Good brain uptake (grade) / Mouse PK Uptake (grade): key: −: poor; ∘: moderate; +: good; ++: very good; +++: excellent; for Fast washout from healthy brain (grade): key: −: poor; ∘: moderate; +: good; ++: very good; +++: excellent; for Good brain uptake (grade): key: −: poor; ∘: moderate; +: good; ++: very good; +++: excellent; for Low or minor de-fluorination (grade): key: −: poor; ∘: moderate; +: good; ++: very good; +++: excellent; for Low retention in healthy brain (grade): key: −: poor; ∘: moderate; +: good; ++: very good; +++: excellent
Protocol: NMRI mice (weight range 25-35 g) were injected intravenously with the ^18F-labeled compounds. Up to 150 μL of 1×PBS solution with 10%-15% EtOH or dilution medium ([…]) containing the ^18F-labeled compound (2-10 MBq) were injected. Anesthesia with isoflurane was induced before injection of the tracer and maintained during the image acquisition period. PET scans were performed using a SIEMENS INVEON small animal PET/CT scanner (Siemens, Knoxville, Tenn.). PET acquisition was started immediately before the radioactive dose was injected into the animal through the tail vein. Images were generated as dynamic scans for 60 minutes.
The peak uptake in the brain was set to 100% and washout curves were generated to evaluate the clearance of the activity from the normal brain (FIG. 2).

Sequence of amyloid-beta (P05067 whole entry): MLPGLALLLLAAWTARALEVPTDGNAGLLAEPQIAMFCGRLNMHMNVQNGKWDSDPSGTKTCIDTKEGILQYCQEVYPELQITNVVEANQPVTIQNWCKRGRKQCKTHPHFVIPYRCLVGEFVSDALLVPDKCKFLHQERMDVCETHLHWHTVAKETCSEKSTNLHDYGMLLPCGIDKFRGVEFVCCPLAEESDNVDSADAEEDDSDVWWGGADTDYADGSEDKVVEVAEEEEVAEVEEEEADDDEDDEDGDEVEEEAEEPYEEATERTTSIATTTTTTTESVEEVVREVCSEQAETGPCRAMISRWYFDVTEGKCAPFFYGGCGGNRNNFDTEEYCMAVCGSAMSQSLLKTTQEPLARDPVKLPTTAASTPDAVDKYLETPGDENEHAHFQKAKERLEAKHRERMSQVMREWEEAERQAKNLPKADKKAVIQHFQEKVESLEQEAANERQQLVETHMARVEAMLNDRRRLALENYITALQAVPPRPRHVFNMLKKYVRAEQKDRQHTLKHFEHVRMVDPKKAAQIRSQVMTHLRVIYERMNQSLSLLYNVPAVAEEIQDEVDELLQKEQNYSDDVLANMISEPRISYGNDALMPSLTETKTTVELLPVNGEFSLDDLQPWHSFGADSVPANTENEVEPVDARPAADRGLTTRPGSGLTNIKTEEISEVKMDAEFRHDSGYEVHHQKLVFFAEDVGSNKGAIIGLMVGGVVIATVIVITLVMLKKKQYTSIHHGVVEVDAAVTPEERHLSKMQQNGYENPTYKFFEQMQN

- Low affinity to amyloid-beta (grade) (amyloid-beta; Table 1): +++^a)
- IC50 (amyloid-beta): > 1000 nM
- IC50 (MAO A [1]): 1300 nM
- Low affinity to MAO A (grade), mouse brain homogenate (MAO A [1]; Table 1): +++
- fold higher MAO A IC50 than compound 18F-1 (MAO A [1]; whole mouse brain homogenate): 59 fold
- fold higher MAO A IC50 than compound 18F-2 (MAO A [1]; whole mouse brain homogenate): 2.7 fold
- fold higher MAO A IC50 than compound 18F-1 (MAO A [2]; HC brain homogenate): 106 fold
- fold higher MAO A IC50 than compound 18F-2 (MAO A [2]; HC brain homogenate): 5 fold
- Low affinity to MAO A (grade), HC homogenate (MAO A [2]; Table 1): ++
- IC50 (MAO A [2]): 530 nM
- Fast washout from healthy brain (grade) ([3]; Table 1): +++
- Good brain uptake (grade) ([3]; Table 1): ++
- Low or minor de-fluorination (grade) ([3]; Table 1): +++
- Low retention in healthy brain (grade) ([3]; Table 1): +++
- fold faster washout from healthy brain than compound 18F-1 ([3]; mice): 3.2 fold
- fold faster washout from healthy brain than compound 18F-2 ([3]; mice): 2.0 fold
- fold less long-term retention in healthy brain than compound 18F-1 ([3]; mice): 4 fold
- fold less long-term retention in healthy brain than compound 18F-2 ([3]; mice): 3 fold
- De-fluorination in mice (in words) ([3]; mouse, in vivo): No de-fluorination
Compound: [18F]c1ncccc1-c1ccc2c(n1)[nH]c1ccncc12 [Compound ^18F-4]

- IC50 (amyloid-beta): > 1000 nM
- IC50 (MAO A [1]): > 1000 nM
- low MAO A binding (grade) (MAO A [1]; Table 2, IC50 in mouse brain homogenate): +++
- IC50 (MAO A [2]): 530 nM
- Mouse PK De-fluorination (grade) ([3]; Table 2): +++
- Mouse PK Uptake (grade) ([3]; Table 2): ++
- Mouse PK Washout (grade) ([3]; Table 2): ++
- bone uptake in shoulder joint at 60 min (de-fluorination) ([3]; healthy mice, after iv injection): (<0.5% ID/g) ^f
- peak uptake in brain (tracer uptake in healthy mice after iv injection) ([3]; healthy mice, iv, PET): (5.8% ID/g)
- ratio of uptake peak/30 min (washout from healthy brain) ([3]; healthy mice, Table 1: ratio of uptake at 2 min and 30 min): (22)
Compound: Fc1ncccc1-c1ccc2c(n1)[nH]c1ccncc12 [Compound F-4]
